Calls of active or inactive are those of the source.
Columns and labels:
[1] = molecular target: G-protein coupled receptor 55 (Homo sapiens, UniProt Q9Y2T6); test: GPR55 agonists via beta-arrestin recruitment, primary screen, imaging, U2OS cells, beta-arrestin-GFP redistribution (AID 1961); type: functional
[2] = A cytotoxicity screen of small molecule inhibitors of the PhoP region in Salmonella typhi identified in the primary screen. [Related pubchem assays: 1850, 1864, 1985 ]; type: functional
Bcl-2-like protein 10 = Bcl-2-like protein 10 (Homo sapiens, UniProt Q9HD36); test: displacers of TR3 peptide from Bcl-B, primary screen, selectivity assay for Bfl-1 inhibitor project, biochemical, fluorescence polarization, FITC-TR3 peptide (AID 748);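 also: fluorescence polarization from a fluorescein-labelled TR3 peptide binding purified Bcl-B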
Bcl-2-like protein 10, sequence (Q9HD36 whole entry): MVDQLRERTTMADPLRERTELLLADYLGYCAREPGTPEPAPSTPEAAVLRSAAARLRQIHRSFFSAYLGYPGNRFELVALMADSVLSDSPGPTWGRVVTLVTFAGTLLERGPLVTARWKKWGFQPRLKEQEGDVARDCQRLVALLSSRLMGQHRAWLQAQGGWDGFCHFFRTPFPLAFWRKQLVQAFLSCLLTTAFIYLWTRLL

Estrogen receptor beta = Estrogen receptor beta (Homo sapiens, UniProt Q92731);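 also: recombinant ER-beta bound to coactivator SRC1 peptide in presence of estradiol agonist; inhibitors block coactivator peptide binding and lower the FRET signal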
Aminopeptidase N = molecular target: T1, Aminopeptidase N (Plasmodium falciparum FcB1/Columbia, UniProt O96935); test: P. falciparum M1AAP inhibitors, biochemical, fluorogenic H-Leu-NHMec substrate, 1536-well (AID 1445); design: species or system Plasmodium falciparum 3D7, 3D7
T1 sequence (O96935 whole entry): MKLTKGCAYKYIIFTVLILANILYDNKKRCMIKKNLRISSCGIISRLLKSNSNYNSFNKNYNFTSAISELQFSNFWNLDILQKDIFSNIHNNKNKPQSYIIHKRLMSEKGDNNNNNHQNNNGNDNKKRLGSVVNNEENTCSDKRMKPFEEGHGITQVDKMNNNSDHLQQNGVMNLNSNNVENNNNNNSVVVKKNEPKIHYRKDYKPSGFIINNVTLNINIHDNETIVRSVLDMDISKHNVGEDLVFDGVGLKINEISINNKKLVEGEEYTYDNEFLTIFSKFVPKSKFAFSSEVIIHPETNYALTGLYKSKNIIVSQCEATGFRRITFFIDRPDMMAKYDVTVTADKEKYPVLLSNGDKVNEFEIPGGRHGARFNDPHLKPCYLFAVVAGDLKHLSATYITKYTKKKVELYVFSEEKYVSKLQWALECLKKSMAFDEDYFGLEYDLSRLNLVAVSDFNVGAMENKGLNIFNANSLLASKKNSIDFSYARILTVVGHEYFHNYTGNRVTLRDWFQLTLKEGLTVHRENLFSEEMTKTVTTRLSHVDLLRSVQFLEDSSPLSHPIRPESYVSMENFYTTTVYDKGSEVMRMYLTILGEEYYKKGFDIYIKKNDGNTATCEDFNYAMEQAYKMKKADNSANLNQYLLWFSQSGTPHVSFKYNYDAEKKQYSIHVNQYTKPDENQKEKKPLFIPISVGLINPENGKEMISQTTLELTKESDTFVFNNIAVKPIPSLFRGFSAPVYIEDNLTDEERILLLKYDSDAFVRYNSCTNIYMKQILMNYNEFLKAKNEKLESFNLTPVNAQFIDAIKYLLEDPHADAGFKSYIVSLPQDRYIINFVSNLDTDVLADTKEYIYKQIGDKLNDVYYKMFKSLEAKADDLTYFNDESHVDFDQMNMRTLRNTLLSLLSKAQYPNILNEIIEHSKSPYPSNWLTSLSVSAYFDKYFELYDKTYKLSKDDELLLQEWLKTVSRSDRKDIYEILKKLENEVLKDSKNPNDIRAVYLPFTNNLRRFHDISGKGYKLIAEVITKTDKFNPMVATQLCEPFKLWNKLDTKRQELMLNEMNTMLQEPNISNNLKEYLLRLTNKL

Estrogen receptor = Estrogen receptor (Homo sapiens, UniProt P03372);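 also: potency for inhibiting coactivator peptide recruitment to the receptor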
Estrogen receptor, sequence (P03372 whole entry): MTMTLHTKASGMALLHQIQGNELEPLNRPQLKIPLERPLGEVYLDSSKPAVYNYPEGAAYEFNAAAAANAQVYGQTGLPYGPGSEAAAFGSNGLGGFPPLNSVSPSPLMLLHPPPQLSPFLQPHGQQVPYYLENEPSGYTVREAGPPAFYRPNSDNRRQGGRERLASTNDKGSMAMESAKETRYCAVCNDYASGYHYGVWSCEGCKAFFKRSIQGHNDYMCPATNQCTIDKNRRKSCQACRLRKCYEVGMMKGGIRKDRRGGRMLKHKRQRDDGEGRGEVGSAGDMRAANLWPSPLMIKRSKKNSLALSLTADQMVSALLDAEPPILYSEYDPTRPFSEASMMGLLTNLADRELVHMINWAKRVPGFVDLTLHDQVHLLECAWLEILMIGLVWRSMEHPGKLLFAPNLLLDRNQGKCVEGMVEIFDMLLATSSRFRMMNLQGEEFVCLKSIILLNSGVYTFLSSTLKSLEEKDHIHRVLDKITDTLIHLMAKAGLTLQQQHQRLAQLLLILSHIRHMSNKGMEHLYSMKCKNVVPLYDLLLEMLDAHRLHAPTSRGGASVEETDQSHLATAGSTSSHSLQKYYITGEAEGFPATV

[3] = NIH-3T3 fibroblast cytotoxicity, dose response, cytotoxicity control, cell-based, fluorescence, Alamar Blue, secondary assay (AID 2327); type: functional;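 also: NIH-3T3 mouse fibroblasts cultured with fluconazole at 8 µg/mL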
[4] = insulin promoter down-regulators in MIN6 cells, imaging, high-content screening, mouse beta cells (AID 1628); type: functional
[5] = cytotoxicity in MIN6 insulinoma cells, dose response, cytotoxicity control, cell-based, mouse insulinoma (AID 2122); type: functional;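 also: confirmatory high-throughput counterscreen run to flag cytotoxic compounds; mouse MIN-6 beta cells carrying an insulin promoter eGFP reporter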
[6] = molecular target: Transitional endoplasmic reticulum ATPase (Homo sapiens, UniProt P55072, C522A); test: C522A mutant p97 ATPase inhibitors, dose response, counter-screen for p97 inhibitor project, biochemical, luminescence (AID 1544)
Transitional endoplasmic reticulum ATPase (Homo sapiens, UniProt P55072, C522A), sequence (P55072 2-806 C522A limits assumed): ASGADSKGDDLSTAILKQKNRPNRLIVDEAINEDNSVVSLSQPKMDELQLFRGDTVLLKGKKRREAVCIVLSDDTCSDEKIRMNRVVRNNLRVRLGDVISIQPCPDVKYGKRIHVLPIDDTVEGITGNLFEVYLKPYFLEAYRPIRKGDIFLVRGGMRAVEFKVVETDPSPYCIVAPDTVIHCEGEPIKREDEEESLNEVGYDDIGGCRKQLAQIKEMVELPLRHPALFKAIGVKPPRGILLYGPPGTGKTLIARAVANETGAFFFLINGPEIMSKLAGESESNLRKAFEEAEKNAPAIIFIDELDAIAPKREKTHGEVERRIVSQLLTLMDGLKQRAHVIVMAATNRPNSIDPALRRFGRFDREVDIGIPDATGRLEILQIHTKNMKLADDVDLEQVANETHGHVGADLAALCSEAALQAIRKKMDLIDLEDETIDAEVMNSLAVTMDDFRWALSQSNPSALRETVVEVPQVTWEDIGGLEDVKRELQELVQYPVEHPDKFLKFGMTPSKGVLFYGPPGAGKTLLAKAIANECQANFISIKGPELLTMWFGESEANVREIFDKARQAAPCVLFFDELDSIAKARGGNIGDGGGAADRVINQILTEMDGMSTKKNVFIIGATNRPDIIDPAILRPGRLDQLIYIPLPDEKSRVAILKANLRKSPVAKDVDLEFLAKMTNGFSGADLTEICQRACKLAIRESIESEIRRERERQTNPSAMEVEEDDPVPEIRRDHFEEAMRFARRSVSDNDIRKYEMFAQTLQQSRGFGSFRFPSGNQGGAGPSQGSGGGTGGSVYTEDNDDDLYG

[7] = molecular target: Transitional endoplasmic reticulum ATPase (Homo sapiens, UniProt P55072); test: p97 ATPase inhibitors, dose response, biochemical (AID 1534)
Transitional endoplasmic reticulum ATPase (Homo sapiens, UniProt P55072), sequence (P55072 whole entry): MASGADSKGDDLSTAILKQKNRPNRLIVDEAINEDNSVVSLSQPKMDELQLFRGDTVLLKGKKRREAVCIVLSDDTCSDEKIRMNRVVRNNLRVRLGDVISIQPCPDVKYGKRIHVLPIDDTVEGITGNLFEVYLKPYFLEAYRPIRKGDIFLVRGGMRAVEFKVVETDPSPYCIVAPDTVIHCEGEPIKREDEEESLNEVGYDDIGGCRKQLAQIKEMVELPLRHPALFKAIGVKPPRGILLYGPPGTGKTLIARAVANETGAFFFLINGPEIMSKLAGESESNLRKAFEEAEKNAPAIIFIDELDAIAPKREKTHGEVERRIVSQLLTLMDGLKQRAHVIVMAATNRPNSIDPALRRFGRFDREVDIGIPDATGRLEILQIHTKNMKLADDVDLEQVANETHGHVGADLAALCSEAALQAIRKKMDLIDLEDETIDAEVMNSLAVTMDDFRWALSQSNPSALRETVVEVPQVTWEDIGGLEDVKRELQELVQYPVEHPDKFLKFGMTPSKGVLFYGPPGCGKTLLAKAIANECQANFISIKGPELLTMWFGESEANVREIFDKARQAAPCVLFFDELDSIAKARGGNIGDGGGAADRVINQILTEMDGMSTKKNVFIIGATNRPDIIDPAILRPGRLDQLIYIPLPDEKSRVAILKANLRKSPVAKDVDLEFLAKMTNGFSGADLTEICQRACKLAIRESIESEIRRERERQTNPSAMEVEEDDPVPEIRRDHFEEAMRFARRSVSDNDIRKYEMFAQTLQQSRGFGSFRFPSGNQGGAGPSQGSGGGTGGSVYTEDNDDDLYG

[8] = molecular target: Induced myeloid leukemia cell differentiation protein Mcl-1 (Homo sapiens, UniProt Q07820); type: functional
Induced myeloid leukemia cell differentiation protein Mcl-1, sequence (Q07820 whole entry): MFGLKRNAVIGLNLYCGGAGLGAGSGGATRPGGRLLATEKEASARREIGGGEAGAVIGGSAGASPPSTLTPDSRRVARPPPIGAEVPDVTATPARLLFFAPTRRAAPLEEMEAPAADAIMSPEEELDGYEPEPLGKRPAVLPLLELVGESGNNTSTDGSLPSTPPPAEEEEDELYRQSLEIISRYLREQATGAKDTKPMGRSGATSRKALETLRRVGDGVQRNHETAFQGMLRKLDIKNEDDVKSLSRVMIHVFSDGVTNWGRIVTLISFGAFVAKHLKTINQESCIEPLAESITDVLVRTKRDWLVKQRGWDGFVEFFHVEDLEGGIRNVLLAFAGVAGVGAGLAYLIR

[9] = HeLa cell cytotoxicity, dose response, cytotoxicity control for MgcRacGAP inhibitor project (AID 624300); type: functional
[10] = molecular target: T2, Rac GTPase-activating protein 1 (Homo sapiens, UniProt Q9H0H5); test: MgcRacGAP GTPase-activating activity inhibitors, confirmation, biochemical, ADP Hunter fluorescence, primary and confirmatory (AID 624330); type: functional
T2 sequence (Q9H0H5 whole entry): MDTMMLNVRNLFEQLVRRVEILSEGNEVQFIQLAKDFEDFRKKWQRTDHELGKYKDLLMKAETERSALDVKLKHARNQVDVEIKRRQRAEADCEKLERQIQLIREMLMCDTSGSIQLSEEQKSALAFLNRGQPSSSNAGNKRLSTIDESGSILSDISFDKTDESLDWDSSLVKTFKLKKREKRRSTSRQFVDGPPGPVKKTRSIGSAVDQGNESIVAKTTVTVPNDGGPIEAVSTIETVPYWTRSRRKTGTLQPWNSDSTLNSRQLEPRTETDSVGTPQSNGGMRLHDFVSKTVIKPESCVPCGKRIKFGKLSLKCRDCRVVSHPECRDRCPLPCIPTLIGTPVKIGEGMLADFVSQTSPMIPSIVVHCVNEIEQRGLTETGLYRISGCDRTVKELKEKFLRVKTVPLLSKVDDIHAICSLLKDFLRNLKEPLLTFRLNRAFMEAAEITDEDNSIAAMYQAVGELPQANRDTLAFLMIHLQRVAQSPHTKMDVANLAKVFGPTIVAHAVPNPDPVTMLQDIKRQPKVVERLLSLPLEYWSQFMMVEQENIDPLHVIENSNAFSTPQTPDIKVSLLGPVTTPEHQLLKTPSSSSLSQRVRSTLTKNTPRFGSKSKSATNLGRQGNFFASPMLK

cells [11] = type: functional, cell-based
[12] = molecular target: T3, Trace amine-associated receptor 1 (Homo sapiens, UniProt Q96RJ0); test: Fluorescence-based cell-based high throughput dose response assay to identify agonists of the human trace amine associated receptor 1 (TAAR1).; type: functional
T3 sequence (Q96RJ0 whole entry): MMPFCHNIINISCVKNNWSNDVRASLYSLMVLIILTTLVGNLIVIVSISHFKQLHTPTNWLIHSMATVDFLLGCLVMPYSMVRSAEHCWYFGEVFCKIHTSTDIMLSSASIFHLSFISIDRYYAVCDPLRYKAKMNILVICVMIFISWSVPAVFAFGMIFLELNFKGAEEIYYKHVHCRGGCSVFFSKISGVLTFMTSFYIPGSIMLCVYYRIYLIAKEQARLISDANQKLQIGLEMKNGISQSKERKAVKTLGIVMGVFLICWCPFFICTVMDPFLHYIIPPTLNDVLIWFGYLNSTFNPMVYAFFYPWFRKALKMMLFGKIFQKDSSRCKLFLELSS

[13] = molecular target: T3, Trace amine-associated receptor 1; test: Counterscreen for agonists of the human trace amine associated receptor 1 (hTAAR1): Fluorescence-based cell-based high throughput dose response assay to identify hTAAR1 agonist that also desensitize TAAR1 receptor response.; type: functional
cells [14] = type: functional, cell-based; remark: listed apart in the source
Caspase-6 = molecular target: T4, Caspase-6 (Homo sapiens, UniProt P55212); test: human caspase-6 inhibitors, dose response, biochemical, VEID-R110 fluorescence, cherry-pick (AID 720632)
T4 sequence (P55212 whole entry): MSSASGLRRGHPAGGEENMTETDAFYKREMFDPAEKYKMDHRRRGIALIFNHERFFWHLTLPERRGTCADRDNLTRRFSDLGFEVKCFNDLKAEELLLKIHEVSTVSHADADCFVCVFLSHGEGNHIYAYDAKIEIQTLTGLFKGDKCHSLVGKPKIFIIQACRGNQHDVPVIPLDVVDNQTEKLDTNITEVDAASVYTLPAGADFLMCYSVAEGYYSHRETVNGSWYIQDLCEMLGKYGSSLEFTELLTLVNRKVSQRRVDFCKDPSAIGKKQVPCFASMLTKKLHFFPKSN

[15] = A High Throughput Confirmatory Assay used to Identify Novel Compounds that Inhibit Mycobacterium Tuberculosis in the absence of Glycerol.; type: functional
Trypsin = Trypsin (Sus scrofa, UniProt P00761); test: porcine trypsin inhibitors, dose response, selectivity assay for Rce1 protease inhibitor project, biochemical, quenched peptide fluorescence, cherry-pick (AID 488789)
Trypsin, sequence (P00761 whole entry): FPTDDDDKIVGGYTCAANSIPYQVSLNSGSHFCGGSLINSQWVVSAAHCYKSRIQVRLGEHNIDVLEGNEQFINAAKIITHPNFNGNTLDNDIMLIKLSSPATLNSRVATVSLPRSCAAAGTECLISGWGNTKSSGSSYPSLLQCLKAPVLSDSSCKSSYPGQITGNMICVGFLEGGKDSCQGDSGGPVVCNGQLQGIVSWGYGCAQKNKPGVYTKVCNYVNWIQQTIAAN

[16] = molecular target: Eukaryotic translation initiation factor 4H (Homo sapiens, UniProt Q15056); test: human eIF4H binding inhibitors, primary screen, translation initiation inhibitor project, biochemical, uHTS, fluorescence polarization (AID 2012)
[17] = molecular target: Polyadenylate-binding protein 1 (Homo sapiens, UniProt P11940); test: PABP poly(A) RNA binding inhibitors, primary screen, biochemical, fluorescence polarization, uHTS (AID 2014)
Polyadenylate-binding protein 1, sequence (P11940 whole entry): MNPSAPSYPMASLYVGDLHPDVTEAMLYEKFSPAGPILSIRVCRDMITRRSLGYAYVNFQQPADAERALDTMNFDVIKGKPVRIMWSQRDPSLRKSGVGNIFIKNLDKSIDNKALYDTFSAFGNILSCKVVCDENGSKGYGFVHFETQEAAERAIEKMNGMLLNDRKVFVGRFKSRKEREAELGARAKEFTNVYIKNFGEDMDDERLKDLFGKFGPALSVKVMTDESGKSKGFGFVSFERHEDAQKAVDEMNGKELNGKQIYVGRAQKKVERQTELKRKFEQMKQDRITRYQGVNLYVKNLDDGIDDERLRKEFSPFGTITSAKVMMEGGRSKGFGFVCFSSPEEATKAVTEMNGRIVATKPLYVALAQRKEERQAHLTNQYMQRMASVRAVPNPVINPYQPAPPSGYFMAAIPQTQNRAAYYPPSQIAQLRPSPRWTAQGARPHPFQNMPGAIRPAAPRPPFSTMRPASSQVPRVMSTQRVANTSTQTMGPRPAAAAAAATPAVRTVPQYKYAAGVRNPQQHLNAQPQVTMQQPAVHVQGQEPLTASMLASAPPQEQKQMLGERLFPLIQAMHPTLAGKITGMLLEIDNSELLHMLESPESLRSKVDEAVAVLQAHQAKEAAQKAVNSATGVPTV

[18] = molecular target: DNA dC->dU-editing enzyme APOBEC-3A (Homo sapiens, UniProt P31941); test: Dose Response confirmation of small molecule APOBEC3A DNA Deaminase Inhibitors via a fluorescence-based single-stranded DNA deaminase assay. [Related pubchem assays (depositor defined):AID493011, AID493024]; type: functional
DNA dC->dU-editing enzyme APOBEC-3A, sequence (P31941 whole entry): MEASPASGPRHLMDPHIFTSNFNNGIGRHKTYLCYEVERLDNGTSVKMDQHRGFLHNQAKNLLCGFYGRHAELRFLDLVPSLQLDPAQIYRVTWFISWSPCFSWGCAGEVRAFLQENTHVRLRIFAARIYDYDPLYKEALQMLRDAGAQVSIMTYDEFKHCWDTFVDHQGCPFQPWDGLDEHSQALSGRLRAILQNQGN

[19] = molecular target: DNA dC->dU-editing enzyme APOBEC-3G (Homo sapiens, UniProt Q9HC16); type: functional;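 also: Dose-response counterscreen measuring inhibition of APOBEC3G DNA deaminase activity, run while confirming APOBEC3A inhibitors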
DNA dC->dU-editing enzyme APOBEC-3G, sequence (Q9HC16 whole entry): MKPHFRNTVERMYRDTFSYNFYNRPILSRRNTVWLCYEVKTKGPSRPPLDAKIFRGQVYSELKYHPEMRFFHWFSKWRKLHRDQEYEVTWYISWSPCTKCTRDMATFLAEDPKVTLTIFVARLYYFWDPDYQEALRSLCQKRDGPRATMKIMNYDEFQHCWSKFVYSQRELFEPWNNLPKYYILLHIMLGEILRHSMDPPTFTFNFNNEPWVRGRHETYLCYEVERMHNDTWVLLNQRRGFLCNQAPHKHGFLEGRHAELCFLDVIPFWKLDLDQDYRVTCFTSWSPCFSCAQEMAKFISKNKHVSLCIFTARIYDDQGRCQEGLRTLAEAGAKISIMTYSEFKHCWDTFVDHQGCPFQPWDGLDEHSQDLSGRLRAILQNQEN

G-protein coupled receptor 55, sequence (Q9Y2T6 whole entry): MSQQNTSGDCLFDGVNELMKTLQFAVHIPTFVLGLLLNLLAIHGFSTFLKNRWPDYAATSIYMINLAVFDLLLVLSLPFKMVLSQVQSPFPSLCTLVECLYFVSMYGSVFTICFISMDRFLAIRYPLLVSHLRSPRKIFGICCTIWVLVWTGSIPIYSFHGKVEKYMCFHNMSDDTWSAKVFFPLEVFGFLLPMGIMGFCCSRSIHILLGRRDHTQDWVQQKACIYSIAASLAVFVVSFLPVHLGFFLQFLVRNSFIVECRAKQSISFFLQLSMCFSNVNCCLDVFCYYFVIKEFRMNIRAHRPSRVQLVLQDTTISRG

For O=C(CSc1nc2ccccc2o1)N1c2ccccc2Sc2ccccc21, the EC50 [1] was > 32 µM (inactive).

For O=C(N/N=C/c1c(Cl)nc2ccccn2c1=O)c1cccnc1, the EC50 [2] was > 50 µM (active).

For O=C(Nc1ccccc1C(=O)O)c1ccccc1, the IC50 (Bcl-2-like protein 10) was > 100 µM (inactive) and the IC50 (Estrogen receptor beta) was > 50 µM (not active).

For O=C1CC(c2ccco2)CC(O)=C1/C=N/c1cc(Cl)ccc1O (stereo not given), the IC50 (Aminopeptidase N) was 5.58 µM (active) and the IC50 (Estrogen receptor) was 43.8 µM (not active).

In the case of Oc1ccc(/C=N/Nc2ccnc3cc(Cl)ccc23)cc1O, the EC50 [3] is reported as 7.32 µM (active), the IC50 [4] is reported as 3.02 µM (active) and the IC50 [5] is reported as 6.19 µM (active). For the same compound, the IC50 [6] was > 50 µM (not active), the IC50 [7] was 36.5 µM (not active) and the IC50 [8] was 4.73 µM (active). The CC50 [9] was 43.5 µM (active), the IC50 [10] was 30 µM (active) and the IC50 (cells [11]) was > 29.9 µM (inactive). The EC50 [12] was 0.498 µM (active), the IC50 [13] was 2.47 µM (active) and the EC50 (cells [14]) was > 29.9 µM (inactive). For the same compound, the AC50 (Caspase-6) was 1.61 µM (active).

For O=S1(=O)CCC(/N=C/c2ccc(-c3ccc(Cl)cc3)o2)C1 (stereo not given), the IC50 [15] was > 100 µM (active).

In the case of N=C(N)NC(=O)c1nc(Cl)c(N)nc1N, the AC50 (Trypsin) is reported as 9.3 µM (active).

For C[n+]1ccccc1/C=C1\Sc2ccccc2N1CCO, the IC50 [16] was > 100 µM (inactive), the IC50 [17] was 2.22 µM (active) and the IC50 [18] was 1.08 µM (active). The IC50 [19] was 2.53 µM (active).
